US8084621B2, “3-Pyrrolo[b]cyclohexylene-2-dihydroindolinone derivatives and uses thereof” (Jiangsu Simcere Pharmaceutical R&D Co. Ltd., priority 2006, dated 2011)

Tested on: Human Small Cell Lung Cancer Cell Line (NCI-H446)
Test: Tumor cell proliferation assay (MTT), NCI-H446
Type: cell-based
Conditions: for inhibition at 10 µM: concentration of 10^−5 mol/L, preliminary screening, 72 hours, read-out: Inhibition rate % NCI-H446; for IC50: secondary screening, 48 hours
Text: The assay used generally is the blue tetrazolium bromide (MTT) method. […] The amount of formazan can be detected by the microplate reader through the absorption value at 570 nm. The amount of formazan product generated is proportional to the number of living cells in the sample, so the OD value may reflect the number of living cells and the ability of a test drug to inhibit or kill cells. The MTT assay may be used in determining the ability of different compounds of the present invention to inhibit one or more cancer cells proliferation. Similar assays can be designed along the same lines for any cancer cell using techniques well known in the art.
The assay used generally is the blue tetrazolium bromide (MTT) method. […] Intracellular purple formazan salt crystals can be solved in DMSO and the absorption value at 570 nm is detected by the microplate reader, then the number of living cells can be detected indirectly. So MTT assay may be used to determine the ability of a compound of the present invention to inhibit cell proliferation. Similar assays can be designed along the same lines for any cancer cell using techniques well known in the art.
2.2.5 Human Small Cell Lung Cancer Cell Line (NCI-H446)
The cells of the 2.2.1, 2.2.2, 2.2.3, 2.2.4, 2.2.5 cultured with RPMI 1640 containing 12% calf serum in the condition of 37° C., 5% CO2.
2.3.1 Cell seeding: Trypsinize the cell by 0.05% trypsin-EDTA and add RPMI 1640 medium (DMEM or 5A) containing 12% calf serum. Count the number, then dilute to 1.67×10^4/ml. Add 180 ul/well to the 96 well plate (3000 cells/well).
2.3.2 Culture: cells are incubated for 24 hours at 37° C. under 5% CO2.
2.3.3 Preliminary screening: The compounds are firstly diluted to 0.1 mol/L with DMSO, and then diluted to three concentrations of 10^−5 mol/L, 10^−6 mol/L and 10^−7 mol/L. Add 20 ul test compounds to the 96 well plate and incubate for 72 hours. Each group has three parallel wells and all experiments repeat three times. Each inhibition ratio is calculated, then an average value of three times is taken as the measured value. 2.3.4 Staining 2.3.4.1 Attached cell: add 20 ul/well MTT to the 96-well plates; incubate for 4 hours in the incubator. Pour out the culture medium in the well and add 100 ul/well DMSO. Shake the plate for 5 min. 2.3.4.2 Suspension cell: add 20 ul/well MTT to the 96-well plates; incubate for 4 hours in the incubator. Add 50 ul/well 20% SDS and incubate for overnight in the incubator. 2.3.5 Reading the plates: read the absorbance A570-A630 with the Infinite M200 microtiter plate reader. Calculate the inhibition ratio of the test compounds. 2.3.6 Secondary screening: the compounds whose inhibition ratio is greater than 50% at the concentrations of 10^−5 mol/L in the preliminary screening will be picked out for Secondary screening. Dilute these compounds to ten concentrations: 10^−5 mol/L, 0.5×10^−5 mol/L, 10^−6 mol/L, 0.8×10^−6 mol/L, 0.6×10^−6 mol/L, 0.4×10^−6 mol/L, 0.2×10^−6 mol/L, 10^−7 mol/L, 0.8×10^−7 mol/L and 0.4×10^−7 mol/L. Add 20 ul test compound solution to the 96 well plate and incubate for 48 hours. Each group has three parallel wells and all experiments repeat for three times. Read the plates and calculate the inhibition ratio according to the preliminary screening method. 2.3.7 Calculate the Inhibition Ratio of Cell Proliferation and the IC50
According to the inhibition ratio of cell proliferation at the different concentrations of the compound, inhibition ratio of 50% of the test compound is calculated through the logarithm of the concentration of the compound with the Logit [I] linear regression, and an average value of three times is taken as the measured value of a sample.

IC50 | SMILES | inhibition at 10 µM
5.99 µM | Cc1[nH]c2c(c1C(=O)NCCCN(C)C)CCC/C2=C1/C(=O)Nc2ccc(Cl)cc21 [I-7, N-(3-(dimethylamino)propyl)-2-methyl-7-[1,2-dihydro-5-chloro-2-oxo-3H-indol-(Z)-3-ylidene]-4,5,6,7-tetrahydro-1H-indole-3-carboxamide] | 62.7%
2.64 µM | Cc1[nH]c2c(c1C(=O)NCC(O)CN1CCCC1)CCC/C2=C1/C(=O)Nc2ccccc21 (stereo not shown) [I-70, N-(2-hydroxy-3-(pyrrolidin-1-yl)propyl)-2-methyl-7-[1,2-dihydro-2-oxo-3H-indol-(Z)-3-ylidene]-4,5,6,7-tetrahydro-1H-indole-3-carboxamide] | 87%
6.47 µM | CCN(CC)CCNC(=O)c1c(C)[nH]c2c1CCC/C2=C1/C(=O)Nc2ccc(Cl)cc21 [I-3, N-(2-(diethylamino)ethyl)-2-methyl-7-[1,2-dihydro-5-chloro-2-oxo-3H-indol-(Z)-3-ylidene]-4,5,6,7-tetrahydro-1H-indole-3-carboxamide] | 69.9%
2.52 µM | Cc1[nH]c2c(c1C(=O)NCC(O)CN1CCCC1)CCC/C2=C1/C(=O)Nc2ccc(F)cc21 (stereo not shown) [I-71, N-(2-hydroxy-3-(pyrrolidin-1-yl)propyl)-2-methyl-7-[1,2-dihydro-5-fluoro-2-oxo-3H-indol-(Z)-3-ylidene]-4,5,6,7-tetrahydro-1H-indole-3-carboxamide] | 87.5%
8.15 µM | Cc1[nH]c2c(c1C(=O)NCC(O)CN1CCN(C)CC1)CCC/C2=C1/C(=O)Nc2ccc(F)cc21 (stereo not shown) [I-77, N-[2-hydroxy-3-(4-methylpiperazin-1-yl)propyl]-2-methyl-7-[1,2-dihydro-5-fluoro-2-oxo-3H-indol-(Z)-3-ylidene]-4,5,6,7-tetrahydro-1H-indole-3-carboxamide] | 57.2%
 | Cc1[nH]c2c(c1C(=O)NCC(O)CN1CCOCC1)CCC/C2=C1/C(=O)Nc2ccc(F)cc21 (stereo not shown) [I-68, N-(2-hydroxy-3-morpholinopropyl)-2-methyl-7-[1,2-dihydro-5-fluoro-2-oxo-3H-indol-(Z)-3-ylidene]-4,5,6,7-tetrahydro-1H-indole-3-carboxamide] | 29.1%
5.17 µM | CCN(CC)CCNC(=O)c1c(C)[nH]c2c1CCC/C2=C1/C(=O)Nc2ccc(C)cc21 [I-4, N-(2-(diethylamino)ethyl)-2-methyl-7-[1,2-dihydro-5-methyl-2-oxo-3H-indol-(Z)-3-ylidene]-4,5,6,7-tetrahydro-1H-indole-3-carboxamide] | 57.7%
 | Cc1[nH]c2c(c1C(=O)NCCN(C)C)CCC/C2=C1/C(=O)Nc2ccc(F)cc21 [I-6, N-(2-(dimethylamino)ethyl)-2-methyl-7-[1,2-dihydro-5-fluoro-2-oxo-3H-indol-(Z)-3-ylidene]-4,5,6,7-tetrahydro-1H-indole-3-carboxamide] | 27.1%
2.27 µM | CCN(CC)CC(O)CNC(=O)c1c(C)[nH]c2c1CCC/C2=C1/C(=O)Nc2ccccc21 (stereo not shown) [I-63, N-(3-(diethylamino)-2-hydroxypropyl)-2-methyl-7-[1,2-dihydro-2-oxo-3H-indol-(Z)-3-ylidene]-4,5,6,7-tetrahydro-1H-indole-3-carboxamide] | 79%
